Results as given in patent publication US9937194B1, “Compounds and methods for treating inflammatory diseases” (priority 2009, dated 2018).
≈ marks a conversion by molar mass, not a printed value. Where “and” joins values, the source holds several entries; their conditions need not be identical. Identical values can stand only once.

How the values were obtained:
E. faecalis ATCC 29212 = assay: MIC; assay type: cell-based
[1] = assay type: cell-based; details: test concentration not given
IL-8 = assay: LPS-induced IL-8 release in PMA-differentiated U937 cells (ELISA); assay type: cell-based, human; details: test concentration not given
In short: (§1)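 PMA-differentiated U937 macrophage-like cells were pretreated with compound for 1 hr, then stimulated with LPS (100 ng/ml) for 4 hrs. Released IL-8 and TNFα were quantified by sandwich ELISA. Values are means of three experiments ± SEM.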

P. aeruginosa ATCC 27853 = assay: MIC; assay type: cell-based
[2] = system: S. aureus ATCC 29213 (MSSA) MLS-S; assay: MIC; assay type: cell-based
K. pneumonia 13883 = assay: MIC; assay type: cell-based; details: in µg/mL
S. pneumoniae ATCC 49619 = assay: MIC; assay type: cell-based
TNFα = assay: LPS-induced TNFα release in PMA-differentiated U937 cells (ELISA); assay type: cell-based, human; details: test concentration not given
In short: as §1

[3] = system: S. typhimurium ATCC 14028; assay: MIC; assay type: cell-based; details: in µg/mL
HDAC activity = assay: H2O2-induced reduction of HDAC activity in PMA-differentiated U937 cells; assay type: cell-based, human; details: test concentration not given; bracketed second value not explained
In short: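 U937 cells PMA-differentiated for 3 days, pretreated with compound for 20 min, then exposed to 200 μM H2O2 for 4 h with Fluor de Lys substrate present. Whole-cell HDAC activity measured fluorimetrically. Data expressed as fold change versus H2O2-only control, mean of four experiments ± SEM.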

MMP9 = assay: PMA-induced MMP9 expression in U937 cells (gelatin zymography); assay type: cell-based, human; details: test concentration not given; bracketed second value not explained
E. coli ATCC 25922 = assay: MIC; assay type: cell-based; details: in µg/mL
H. influenzae ATCC 49247 = assay: MIC; assay type: cell-based
S. pyogenes ATCC 19615 = assay: MIC; assay type: cell-based; details: in µg/mL
[4] = system: N. gonorrhoeae ATCC 49226; assay: MIC; assay type: cell-based; parameters: unit not given beside the values
[5] = system: S. pneumoniae 3773 (ErmB); assay: MIC; assay type: cell-based
S. pyogenes ATCC 1721 = assay: MIC; assay type: cell-based
S. pneumoniae 163 (MefA) = assay: MIC; assay type: cell-based; details: in µg/mL
S. pneumoniae 303 (ErmB) = assay: MIC; assay type: cell-based

| SMILES | MIC E. faecalis ATCC 29212 (E. faecalis ATCC 29212) [µg/mL] | Cell Toxicity (% cell death) [1] [%] | IL-8 inhibition (%) (IL-8) | MIC P. aeruginosa ATCC 27853 (P. aeruginosa ATCC 27853) [µg/mL] | MIC S. aureus ATCC 29213 (MSSA) MLS-S [2] [µg/mL] | MIC K. pneumonia 13883 (K. pneumonia 13883) | MIC S. pneumoniae ATCC 49619 (S. pneumoniae ATCC 49619) [µg/mL] | TNFα inhibition (%) (TNFα) | MIC S. typhimurium ATCC 14028 [3] | restoration of H2O2-reduced HDAC activity (%) (HDAC activity) | MMP9 inhibition (%) (MMP9) | MIC E. coli ATCC 25922 (E. coli ATCC 25922) | MIC H. influenzae ATCC 49247 (H. influenzae ATCC 49247) [µg/mL] | MIC S. pyogenes ATCC 19615 (S. pyogenes ATCC 19615) | MIC N. gonorrhoeae ATCC 49226 [4] | MIC S. pneumoniae 3773 (ErmB) [5] [µg/mL] | MIC S. pyogenes ATCC 1721 (S. pyogenes ATCC 1721) [µg/mL] | MIC S. pneumoniae 163 (MefA) (S. pneumoniae 163 (MefA)) | MIC S. pneumoniae 303 (ErmB) (S. pneumoniae 303 (ErmB)) [µg/mL] |
| --- | --- | --- | --- | --- | --- | --- | --- | --- | --- | --- | --- | --- | --- | --- | --- | --- | --- | --- | --- |
| CCC1OC(=O)C(C)C(OC2OCC(O)C(NC)C2O)C(C)C(OC2OC(C)CC(N(C)C)C2O)C(C)(O)CC(C)CN(C(C)=O)C(C)C2OC(=O)OC12C (mixture of isomers) [Example 32] | 32 | 11 | 55 | > 64 | 32 | >64 | 32 | 73 | >64 | 79 (65) % | 40 (49) % | >64 | – | – | – | – | – | – | – |
| CCC1OC(=O)C(C)C(OC2OCC(O)C(N(C)C)C2O)C(C)C(OC2OC(C)CC(N(C)C)C2O)C(C)(O)CC(C)CN(C(C)=O)C(C)C2OC(=O)OC12C (mixture of isomers) [Example 40] | 32 | 26 | 93 | > 64 | 16 | >64 | 64 | 68 | >64 | 26% | 60 (38) % | >64 | > 64 | >64 | 8 and 16 | – | – | – | – |
| CC[C@H]1OC(=O)[C@H](C)C(=O)[C@H](C)[C@@H](O[C@@H]2O[C@H](COC(=O)c3ccccc3)[C@@H](N)[C@@H]2O)[C@@](C)(OC)C[C@@H](C)C(=O)[C@H](C)[C@H]2N(CCCCn3cc(-c4ccccn4)nn3)C(=O)O[C@]12C [Example 26] | – | −2 | −51 | – | – | – | 32 (≈ 35.9 µM) | −25 | – | 92% | 2% | – | > 64 | – | – | > 64 | > 64 | 64 | – |
| CC[C@H]1OC(=O)[C@@](C)(F)C(=O)[C@H](C)[C@@H](O[C@@H]2O[C@H](C)[C@@H](OC(=O)Nc3ccccc3)[C@H](N(C)C)[C@H]2O)[C@@](C)(OC)C[C@@H](C)C(=O)[C@H](C)[C@H]2N(CCCCn3cc(-c4ccccn4)nn3)C(=O)O[C@]12C [Example 27] | – | −7 | −43 | – | – | – | 32 (≈ 33.1 µM) | 34 | – | 75% | 1% | – | > 64 | – | – | > 64 | > 64 | 8 | > 64 |
